# Reference: patent US11919965B2, “Methods of treating multiple myeloma with bispecific anti-BCMA x anti-CD3 antibodies” (Regeneron Pharmaceuticals, Inc., priority 2019, dated 2024)
# Where two headings read alike, the source gives them in different places.
# Columns and labels:
# MC38/BCMA tumors = test: Syngenic tumor model in CD3-humanized mice (Example 16); type: in vivo, mouse
# Protocol: (§1) To determine the in vivo efficacy of anti-BCMA×anti-CD3 bispecific antibodies (Abs), a syngenic tumor study was performed in mice expressing human CD3. C57BL/6 mice that express human CD3deg in place of murine CD3deg (CD3-humanized mice) were subcutaneously implanted with either 0.5×10^6 B16 melanoma cells that have been engineered to express full-length human BCMA (B16/BCMA cells) or 1×10^6 MC38 colon carcinoma cells that have been engineered to express full-length human BCMA (MC38/BCMA). […] The mice were administered these Abs twice more on days 4 and 7 for a total of three doses, and tumor growth was assessed throughout the experiment.
# (§2) Implantation and measurement of syngenic tumors: C57BL/6 mice that express human CD3deg in place of murine CD3deg (CD3-humanized mice) were subcutaneously implanted with either 0.5×10^6 B16F10 melanoma cells that have been engineered to express full-length human BCMA (B16/BCMA cells) or 1×10^6 MC38 colon carcinoma cells that have been engineered to express full-length human BCMA (MC38/BCMA). […] The mice were administered these Abs twice more on days 4 and 7 for a total of three doses, and tumor growth was assessed throughout the experiment.
# (§3) Calculation of syngenic tumor growth and inhibition: In order to determine tumor volume by external caliper, the greatest longitudinal diameter (length in mm) and the greatest transverse diameter (width in mm) were determined. Tumor volumes based on caliper measurements were calculated by the formula: Volume (mm^3)=(length×width^2)/2.
# B16/BCMA tumors = test: as above; type: in vivo, mouse
# Protocol: as §1, §2, §3
# [1] = tested on: primary human CD138+ plasma cells; test: Autologous T cell-mediated killing of plasma cells and T cell activation (% CD25 upregulation); type: cell-based; conditions: for EC50: read-out: T Cell Activation (% CD25 Upregulation) CD8+ T cells EC50
# Protocol: The specific killing of enriched CD138^+ human or cynomolgus monkey plasma cells by unstimulated autologous T cells was assessed by flow cytometry. Human or cynomolgus bone marrow aspirates and blood were provided within 24 hours of harvest. CD138^+ plasma cells were enriched from bone marrow by positive selection using the EasySep Human CD138^+ Positive Selection kit according to the manufacturer's instructions. PBMC from whole blood were isolated by density separation. PBMC were labeled with 1 μM of VYBRANT™ CFDA-SE fluorescent tracking dye. […] At the end of the culture, surviving CD138^+ plasma cells were analyzed by flow cytometry, utilizing fixable LIVE/DEAD dye and plasma cell specific cell surface markers. Percent viability was normalized to control condition (plasma cells in the presence of PBMC only). T cell activation was assessed by flow cytometry. Activation is reported as the percentage of CD2^+/CD4^+ or CD2^+/CD8^+/CD16^− T cells expressing CD25. Percent T cell activation was normalized to control condition (plasma cells in the presence of PBMC only).
# [2] = tested on: patients with relapsed or refractory multiple myeloma; test: Phase 1/2 clinical study of REGN5458 monotherapy; conditions: for Complete response (CR) or stringent CR (sCR) / Overall response rate (ORR) / Partial response (PR) / Very good partial response (VGPR): preliminary results
# [3] = tested on: BCMA+ MOLP-8-luciferase tumors; test: Xenogenic tumor model, i.v. MOLP-8-luciferase in PBMC-engrafted NSG mice, bioluminescence (Example 14); type: in vivo, mouse; conditions: 4 mg/kg
# Protocol: To determine the in vivo efficacy of anti-BCMA×anti-CD3 bispecific antibodies (Abs), a xenogenic tumor study was performed. On day −11, immunodeficient NOD.Cg-Prkdc^scidII2rg^tm1Wjl/SzJ (NSG) mice were intraperitoneally injected with 4×10^6 human peripheral blood mononuclear cells (PBMC) from a normal, healthy donor. On day 0, the mice were intravenously administered 2×10^6 BCMA^+ MOLP-8 human multiple myeloma tumor cells that were engineered to also express firefly luciferase (MOLP-8-luciferase cells). […] The mice were administered these Abs twice more on days 3 and 7, for a total of three doses. Tumor growth was assessed over 48 days by measuring tumor bioluminescence (BLI) in anesthetized animals. As a positive control, a group of mice (n=5) was given only MOLP-8-luciferase cells, but not PBMC or antibody.
# Implantation and measurement of xenogenic tumors: On day −11, immunodeficient NOD.Cg-Prkdc^scidII2rg^tm1Wjl/SzJ (NSG) mice were intraperitoneally injected with 5×10^6 human PBMC from a normal, healthy donor. On day 0, the mice were intravenously administered 2×10^6 BCMA^+ MOLP-8-luciferase cells. […] The mice were administered these Abs twice more on days 3 and 7, for a total of three doses. Tumor growth was assessed over 48 days by measuring tumor BLI in anesthetized animals. As a positive control, a group of mice (n=5) was given only MOLP-8-luciferase cells, but not PBMC or antibody.
# Measurement of xenogenic tumor growth: BLI imaging was used to measure tumor burden. Mice were injected IP with 150 mg/kg of the luciferase substrate D-luciferin suspended in PBS. Five minutes after this injection, BLI imaging of the mice was performed under isoflurane anesthesia using the Xenogen IVIS system. Image acquisition was carried out with the field of view at D, subject height of 1.5 cm, and medium binning level with automatic exposure time determined by the Living Image Software. BLI signals were extracted using Living Image software: regions of interest were drawn around each tumor mass and photon intensities were recorded as p/s/cm2/sr.
# [4] = Dose Levels 1, 2, 3 (3, 6, 12 mg; n = 24)
# [5] = Dose Levels 4, 5 (24, 48 mg; n = 17)
# [6] = patients with marrow plasmacytosis <50%
substance,measurement,setting,value
"REGN5458: anti-BCMA×anti-CD3 bispecific antibody: mAb21581 BCMA heavy chain, mAb7221G CD3 heavy chain and common light chain; SEQ ID NOs 126, 127, 129",tumor growth,MC38/BCMA tumors; 0.4 or 0.04 mg/kg,suppress the growth of both tumor lines in a dose-dependent manner
same,Average Tumor Size (mm3) ± SEM on Day 5,"MC38/BCMA tumors; MC38/BCMA Tumor, 0.04 mg/kg",11.9 ± 2.9 mm3
same,Average Tumor Size (mm3) ± SEM on Day 10,"MC38/BCMA tumors; MC38/BCMA Tumor, 0.04 mg/kg",66.7 ± 22.5 mm3
same,Average Tumor Size (mm3) ± SEM on Day 14,"MC38/BCMA tumors; MC38/BCMA Tumor, 0.04 mg/kg",273.3 ± 115.3 mm3
same,Average Tumor Size (mm3) ± SEM on Day 18,"MC38/BCMA tumors; MC38/BCMA Tumor, 0.04 mg/kg",641.5 ± 309.8 mm3
same,Average Tumor Size (mm3) ± SEM on Day 10,"MC38/BCMA tumors; MC38/BCMA Tumor, 0.4 mg/kg",0.0 ± 0.0 mm3
same,Average Tumor Size (mm3) ± SEM on Day 14,"MC38/BCMA tumors; MC38/BCMA Tumor, 0.4 mg/kg",2.9 ± 2.9 mm3
same,Average Tumor Size (mm3) ± SEM on Day 18,"MC38/BCMA tumors; MC38/BCMA Tumor, 0.4 mg/kg",7.5 ± 7.5 mm3
same,tumor growth,B16/BCMA tumors; 0.4 or 0.04 mg/kg,suppress the growth of both tumor lines in a dose-dependent manner
same,Average Tumor Size (mm3) ± SEM on Day 5,"B16/BCMA tumors; B16/BCMA Tumor, 0.04 mg/kg",3.3 ± 2.2 mm3
same,Average Tumor Size (mm3) ± SEM on Day 10,"B16/BCMA tumors; B16/BCMA Tumor, 0.04 mg/kg",15.4 ± 12.5 mm3
same,Average Tumor Size (mm3) ± SEM on Day 14,"B16/BCMA tumors; B16/BCMA Tumor, 0.04 mg/kg",81.4 ± 49.2 mm3
same,Average Tumor Size (mm3) ± SEM on Day 5,"B16/BCMA tumors; B16/BCMA Tumor, 0.4 mg/kg",0.0 ± 0.0 mm3
same,Average Tumor Size (mm3) ± SEM on Day 10,"B16/BCMA tumors; B16/BCMA Tumor, 0.4 mg/kg",0.0 ± 0.0 mm3
same,Average Tumor Size (mm3) ± SEM on Day 14,"B16/BCMA tumors; B16/BCMA Tumor, 0.4 mg/kg",8.1 ± 4.4 mm3
same,Average Tumor Size (mm3) ± SEM on Day 18,"B16/BCMA tumors; B16/BCMA Tumor, 0.4 mg/kg",47.1 ± 17.0 mm3
same,EC50,"[1]; Human Donor 1 plasma cells, autologous primary human T cells",0.214 nM
same,T Cell Activation (% CD25 Upregulation) CD8+ T cells % Activation,"[1]; Human Donor 2 plasma cells, autologous primary human T cells, maximum",36%
same,EC50,"[1]; Human Donor 2 plasma cells, autologous primary human T cells",0.86 nM
same,maximum percent CD8+ T cell activation,[1]; donor 2,36%
same,Complete response (CR) or stringent CR (sCR),[2]; Dose Level 6 (96 mg; n = 8),0% (0)
same,Overall response rate (ORR),[2]; Dose Level 6 (96 mg; n = 8),63% (5)
same,Partial response (PR),[2]; Dose Level 6 (96 mg; n = 8),0% (0)
same,Very good partial response (VGPR),[2]; Dose Level 6 (96 mg; n = 8),63% (5)
same,Complete response (CR) or stringent CR (sCR),[2]; [4],21% (5)
same,Overall response rate (ORR),[2]; [4],29% (7)
same,Partial response (PR),[2]; [4],4% (1)
same,Very good partial response (VGPR),[2]; [4],4% (1)
same,Complete response (CR) or stringent CR (sCR),[2]; [5],18% (3)
same,Overall response rate (ORR),[2]; [5],41% (7)
same,Partial response (PR),[2]; [5],0% (0)
same,Very good partial response (VGPR),[2]; [5],24% (4)
same,objective response rate (ORR),[2]; dose level 6,62.5%
same,objective response rate (ORR),[2]; dose levels 1 to 3,29.2%
same,objective response rate (ORR),[2]; dose levels 4 and 5,41.2%
same,observed median duration of response,"[2]; human, in vivo",6.01 months
same,complete response (CR) or stringent CR,[2]; of responders,42.1%
same,responders achieving at least a very good partial response (VGPR),[2]; of responders,95%
same,responders with DOR ≥8 months,[2]; of responders,36.8%
same,responders with duration of response (DOR) ≥4 months,[2]; of responders,63.2%
same,ORR,[2]; patients with extramedullary plasmacytomas (EMP),14.3%
same,ORR,[2]; [6],71.4%
same,stringent complete response,[2]; [6],35.7%
same,very good partial response,[2]; [6],35.7%
same,ORR,[2]; patients with marrow plasmacytosis ≥50%,9.1%
same,ORR,[2]; patients without EMP,45%
same,complete response or stringent complete response,[2]; patients without EMP,20%
same,very good partial response,[2]; patients without EMP,22.5%
same,responders receiving ongoing treatment,[2]; to date,74%
same,Radiance [p/s/cm2^2/sr] 8 days post-implantation (mean ± SEM),[3],5.66E+05 ± 1.97E+04 p/s/cm2^2/sr
same,Radiance [p/s/cm2^2/sr] 22 days post-implantation (mean ± SEM),[3],1.08E+06 ± 1.71E+05 p/s/cm2^2/sr
same,Radiance [p/s/cm2^2/sr] 24 days post-implantation (mean ± SEM),[3],1.02E+06 ± 1.99E+05 p/s/cm2^2/sr
same,Radiance [p/s/cm2^2/sr] 28 days post-implantation (mean ± SEM),[3],3.56E+06 ± 6.34E+05 p/s/cm2^2/sr
same,Radiance [p/s/cm2^2/sr] 30 days post-implantation (mean ± SEM),[3],6.92E+06 ± 1.40E+06 p/s/cm2^2/sr
same,Radiance [p/s/cm2^2/sr] 34 days post-implantation (mean ± SEM),[3],2.65E+07 ± 1.36E+07 p/s/cm2^2/sr
same,Radiance [p/s/cm2^2/sr] 37 days post-implantation (mean ± SEM),[3],4.52E+07 ± 1.40E+07 p/s/cm2^2/sr
same,tumor growth,[3]; three doses,delayed the growth
